Results published in ChEMBL document CHEMBL5532748, “Design, synthesis and antibacterial activity evaluation of ebselen derivatives in NDM-1 producing bacteria” (RSC Med Chem, 2024).
Each block holds one compound with its values, some of them ahead of it. Calls of active or inactive are those of the source. The rule behind the calls is not given here.

Columns and labels:
[1] = test system: Escherichia coli; assay: Antibacterial activity against Escherichia coli TG-1 transfected with Klebsiella pneumoniae full-length NDM-1 beta lactamase gene incubated in presence of meropenem; assay type: functional
[2] = test system: Escherichia coli; assay: Synergistic antibacterial activity against Escherichia coli TG-1 transfected with Klebsiella pneumoniae full-length NDM-1 beta lactamase gene assessed as fractional inhibitory concentration index in presence of meropenem; assay type: functional
[3] = test system: Escherichia coli; assay: Antibacterial activity against Escherichia coli TG-1 transfected with Klebsiella pneumoniae full-length NDM-1 beta-lactamase gene; assay type: functional
[4] = test system: Escherichia coli; assay: Synergistic antibacterial activity against Escherichia coli BJE-4 expressing NDM-1 gene assessed as fractional inhibitory concentration index in presence of meropenem; assay type: functional
[5] = test system: Escherichia coli; assay: Antibacterial activity against Escherichia coli BJE-4 expressing NDM-1 gene in presence of meropenem; assay type: functional
[6] = test system: Escherichia coli; assay: Antibacterial activity against Escherichia coli BJE-4 expressing NDM-1 gene; assay type: functional
[7] = molecular target: Metallo-beta-lactamase type 2 (Bacteria, UniProt C7C422); assay: Inhibition of NDM-1 (unknown origin) using nitrocefin as substrate incubated for 15 to 60 mins by absorption based analysis
[8] = test system: Klebsiella pneumoniae; assay: Antibacterial activity against Klebsiella pneumoniae producing NDM-1, KPC-2 and SHV-12 beta-lactamases in presence of meropenem; assay type: functional
[9] = test system: Escherichia coli; assay: Antibacterial activity against Escherichia coli producing NDM-1, CTX-M-15 and SHV-12 beta lactamases; assay type: functional
[10] = test system: Escherichia coli; assay: Synergistic antibacterial activity against Escherichia coli producing NDM-1 and CTX-M-15 beta-lactamases assessed as fractional inhibitory concentration index in presence of meropenem; assay type: functional
[11] = test system: Enterobacter cloacae; assay: Synergistic antibacterial activity against Enterobacter cloacae producing NDM-1, CTX-M-14 and TEM-1 beta-lactamases assessed as fractional inhibitory concentration index in presence of meropenem; assay type: functional
[12] = test system: Klebsiella pneumoniae; assay: Antibacterial activity against Klebsiella pneumoniae producing NDM-1, KPC-2 and SHV-12 beta-lactamases; assay type: functional
[13] = test system: Citrobacter freundii; assay: Antibacterial activity against Citrobacter freundii producing NDM-1 and SHV-12 in presence of meropenem; assay type: functional
[14] = test system: Caco-2; assay: Antibacterial activity against Salmonella lomita SL131 infected in human Caco-2 cells assessed as reduction in bacterial survival rate at 64 ug/ml incubated for 6 hrs by agar dilution method; assay type: functional, cell-based; conditions: Salmonella enterica subsp. enterica serovar Lomita, dose 64.0 µg/ml
[15] = test system: Escherichia coli; assay: Antibacterial activity against Escherichia coli producing NDM-1, CTX-M-15 and SHV-12 beta-lactamases in presence of meropenem; assay type: functional
[16] = test system: Klebsiella pneumoniae; assay: Synergistic antibacterial activity against Klebsiella pneumoniae producing NDM-1, KPC-2 and SHV-12 beta-lactamases assessed as fractional inhibitory concentration index in presence of meropenem; assay type: functional
[17] = test system: Enterobacter cloacae; assay: Antibacterial activity against Enterobacter cloacae producing NDM-1, CTX-M-14 and TEM-1 beta-lactamases; assay type: functional
[18] = test system: Escherichia coli; assay: Antibacterial activity against Escherichia coli producing NDM-1 and CTX-M-15 beta lactamases; assay type: functional
[19] = test system: Enterobacter cloacae; assay: Antibacterial activity against Enterobacter cloacae producing NDM-1, TEM-1 and SHV-12 beta-lactamases; assay type: functional
[20] = test system: Enterobacter cloacae; assay: Antibacterial activity against Enterobacter cloacae producing NDM-1, IMP-4 and TEM-1 beta-lactamases; assay type: functional
[21] = test system: Caco-2; assay: Antibacterial activity against Salmonella lomita SL131 infected in human Caco-2 cells assessed as reduction in bacterial survival rate at 32 to 64 ug/ml incubated for 6 hrs in presence of meropenem by agar dilution method; assay type: functional, cell-based; conditions: Salmonella enterica subsp. enterica serovar Lomita, dose 32-64 µg/ml
[22] = test system: Citrobacter freundii; assay: Antibacterial activity against Citrobacter freundii producing NDM-1 and SHV-12 beta-lactamases; assay type: functional
[23] = molecular target: Metallo-beta-lactamase type 2 (Bacteria) (UniProt C7C422); assay: Binding affinity to wild type NDM-1 (unknown origin) assessed as change in NDM-1 enzyme complex at 100 uM by ESI-MS analysis
[24] = test system: Citrobacter freundii; assay: Antibacterial activity against Citrobacter freundii producing NDM-1, CTX-M-3 and KPC-2 beta-lactamases in presence of meropenem; assay type: functional
[25] = test system: Enterobacter cloacae; assay: Antibacterial activity against Enterobacter cloacae producing NDM-1, TEM-1 and SHV-12 beta-lactamase in presence of meropenem; assay type: functional
[26] = test system: Escherichia coli; assay: Antibacterial activity against Escherichia coli producing NDM-1 and CTX-M-15 beta-lactamases in presence of meropenem; assay type: functional
[27] = test system: Enterobacter cloacae; assay: Synergistic antibacterial activity against Enterobacter cloacae producing NDM-1, TEM-1 and SHV-12 beta-lactamases assessed as fractional inhibitory concentration index in presence of meropenem; assay type: functional
[28] = test system: Enterobacter cloacae; assay: Antibacterial activity against Enterobacter cloacae producing NDM-1, IMP-4 and TEM-1 beta-lactamases in presence of meropenem; assay type: functional
[29] = test system: Escherichia coli; assay: Synergistic antibacterial activity against Escherichia coli producing NDM-1, CTX-M-15 and SHV-12 beta-lactamases assessed as fractional inhibitory concentration index in presence of meropenem; assay type: functional
[30] = test system: Citrobacter freundii; assay: Synergistic antibacterial activity against Citrobacter freundii producing NDM-1, CTX-M-3 and KPC-2 beta-lactamases assessed as fractional inhibitory concentration index in presence of meropenem; assay type: functional
[31] = test system: Enterobacter cloacae; assay: Antibacterial activity against Enterobacter cloacae producing NDM-1, CTX-M-14 and TEM-1 beta-lactamases in presence of meropenem; assay type: functional
[32] = test system: Citrobacter freundii; assay: Antibacterial activity against Citrobacter freundii producing NDM-1, CTX-M-3 and KPC-2 beta-lactamases; assay type: functional
[33] = test system: HEK-293T; assay: Cytotoxicity against HEK293T cells assessed as reduction in cell viability at 8 to 64 ug/ml incubated for 48 hrs by MTT assay; assay type: toxicity, cell-based; conditions: human, dose 8-64 µg/ml
[34] = test system: Enterobacter cloacae; assay: Synergistic antibacterial activity against Enterobacter cloacae producing NDM-1, IMP-4 and TEM-1 beta-lactamases assessed as fractional inhibitory concentration index in presence of meropenem; assay type: functional
[35] = test system: Citrobacter freundii; assay: Synergistic antibacterial activity against Citrobacter freundii producing NDM-1 and SHV-12 beta-lactamases assessed as fractional inhibitory concentration index in presence of meropenem; assay type: functional

Metallo-beta-lactamase type 2, sequence (C7C422 whole entry): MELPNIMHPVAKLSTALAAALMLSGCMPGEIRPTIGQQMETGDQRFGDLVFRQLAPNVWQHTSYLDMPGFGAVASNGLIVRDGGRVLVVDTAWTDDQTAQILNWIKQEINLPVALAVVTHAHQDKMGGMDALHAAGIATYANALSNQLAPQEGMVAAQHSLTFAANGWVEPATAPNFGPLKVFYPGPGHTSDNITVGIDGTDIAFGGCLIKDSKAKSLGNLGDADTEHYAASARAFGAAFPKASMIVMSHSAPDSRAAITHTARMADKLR
Metallo-beta-lactamase type 2 (Bacteria), sequence (C7C422 whole entry): as above

Structure (SMILES): CC(C)(C)OC(=O)NCCCn1[se]c2ccccc2c1=O
MIC [1]: 16 µg/mL
fractional inhibitory concentration index (FICI) [2]: 0.5
MIC [3]: > 64 µg/mL
fractional inhibitory concentration index (FICI) [4]: 0.625
MIC [5]: 8 µg/mL
MIC [6]: > 16 µg/mL

Structure (SMILES): CC(C)(C)C(=O)NCCCn1[se]c2ccccc2c1=O
MIC [1]: 16 µg/mL
fractional inhibitory concentration index (FICI) [2]: 0.5
MIC [3]: > 64 µg/mL
fractional inhibitory concentration index (FICI) [4]: 0.625
MIC [5]: 8 µg/mL
MIC [6]: > 16 µg/mL

MIC [1]: ≤ 8 µg/mL
MIC [3]: > 64 µg/mL
MIC [5]: 8 µg/mL
MIC [6]: > 16 µg/mL
Structure (SMILES): CC(C)(C)c1ccc(S(=O)(=O)NCCn2[se]c3ccccc3c2=O)cc1
fractional inhibitory concentration index (FICI) [2]: 0.25
fractional inhibitory concentration index (FICI) [4]: 0.625

Structure (SMILES): CC(C)(C)OC(=O)NCCCCCn1[se]c2ccccc2c1=O
MIC [1]: 16 µg/mL
fractional inhibitory concentration index (FICI) [2]: 0.5
MIC [3]: > 64 µg/mL
fractional inhibitory concentration index (FICI) [4]: 0.625
MIC [5]: 8 µg/mL
MIC [6]: > 16 µg/mL

Structure (SMILES): CC(C)(C)OC(=O)N1CCC(n2[se]c3ccccc3c2=O)CC1
MIC [1]: 16 µg/mL
fractional inhibitory concentration index (FICI) [2]: 0.5
MIC [3]: > 64 µg/mL
fractional inhibitory concentration index (FICI) [4]: 0.625
MIC [5]: 8 µg/mL
MIC [6]: > 16 µg/mL

Structure (SMILES): CS(=O)(=O)c1ccc(-n2[se]c3ccccc3c2=O)cc1
MIC [1]: ≤ 8 µg/mL
fractional inhibitory concentration index (FICI) [2]: 0.25
MIC [3]: > 64 µg/mL
fractional inhibitory concentration index (FICI) [4]: 0.625
MIC [5]: 8 µg/mL
MIC [6]: > 16 µg/mL
IC50 [7]: 7.29 µM

Structure (SMILES): CCS(=O)(=O)NCCn1[se]c2ccccc2c1=O
MIC [1]: 16 µg/mL
fractional inhibitory concentration index (FICI) [2]: 0.5
MIC [3]: > 64 µg/mL
fractional inhibitory concentration index (FICI) [4]: 0.625
MIC [5]: 8 µg/mL
MIC [6]: > 16 µg/mL

Structure (SMILES): CC(C)(C)C(=O)NCCn1[se]c2ccccc2c1=O
MIC [1]: 64 µg/mL
fractional inhibitory concentration index (FICI) [2]: 2
MIC [3]: > 64 µg/mL
fractional inhibitory concentration index (FICI) [4]: 0.625
MIC [5]: 8 µg/mL
MIC [6]: > 16 µg/mL

Structure (SMILES): CCc1ccc(-n2[se]c3ccccc3c2=O)cc1
MIC [1]: 64 µg/mL
fractional inhibitory concentration index (FICI) [2]: 2
MIC [3]: > 64 µg/mL
fractional inhibitory concentration index (FICI) [4]: 0.625
MIC [5]: 8 µg/mL
MIC [6]: > 16 µg/mL

Structure (SMILES): CC(C)(C)OC(=O)NCCCCCCn1[se]c2ccccc2c1=O
MIC [8]: 16 µg/mL
MIC [9]: > 64 µg/mL
fractional inhibitory concentration index (FICI) [10]: 0.25
fractional inhibitory concentration index (FICI) [11]: 0.188
MIC [12]: > 64 µg/mL
MIC [13]: 8 µg/mL
Activity [14]: inactive
MIC [15]: 8 µg/mL
MIC [1]: 4 µg/mL
fractional inhibitory concentration index (FICI) [2]: 0.125
fractional inhibitory concentration index (FICI) [16]: 0.5
MIC [17]: > 128 µg/mL
MIC [18]: > 64 µg/mL
MIC [3]: > 64 µg/mL
MIC [19]: > 64 µg/mL
MIC [20]: > 64 µg/mL
Activity [21]: Active
MIC [22]: > 64 µg/mL
Activity [23]: Active
fractional inhibitory concentration index (FICI) [4]: 0.313
MIC [24]: 16 µg/mL
MIC [25]: 4 µg/mL
MIC [26]: 8 µg/mL
fractional inhibitory concentration index (FICI) [27]: 0.125
MIC [28]: 16 µg/mL
MIC [5]: 4 µg/mL
fractional inhibitory concentration index (FICI) [29]: 0.25
fractional inhibitory concentration index (FICI) [30]: 0.375
MIC [6]: > 16 µg/mL
MIC [31]: 8 µg/mL
MIC [32]: > 128 µg/mL
Activity [33]: Non-Toxic
fractional inhibitory concentration index (FICI) [34]: 0.5
fractional inhibitory concentration index (FICI) [35]: 0.25
IC50 [7]: 26.8 µM

Structure (SMILES): COc1ccc(S(=O)(=O)NCCn2[se]c3ccccc3c2=O)cc1
MIC [1]: ≤ 8 µg/mL
fractional inhibitory concentration index (FICI) [2]: 0.25
MIC [3]: > 64 µg/mL
fractional inhibitory concentration index (FICI) [4]: 0.625
MIC [5]: 8 µg/mL
MIC [6]: > 16 µg/mL

MIC [1]: 16 µg/mL
MIC [3]: > 64 µg/mL
MIC [5]: 8 µg/mL
MIC [6]: > 16 µg/mL
Structure (SMILES): O=c1c2ccccc2[se]n1CCNS(=O)(=O)c1ccc(Cl)c([N+](=O)[O-])c1
fractional inhibitory concentration index (FICI) [2]: 0.5
fractional inhibitory concentration index (FICI) [4]: 0.625
